# Measurements: patent US20210000879A1, “METHODS AND COMPOSITIONS FOR MRNA-BASED MODULATION AND DETECTION OF CELL PHENOTYPES” (Georgia Tech Research Corporation, priority 2018, published 2021)
# What was measured:
# [1] = test system: neonatal rat ventricular cardiomyocytes; experiment: TBX18 protein expression by immunoblot normalized to GAPDH; format: cell-based; conditions: 333 ng mRNA with ViroMer Red, 96-well plate
# Experimental: Freshly-isolated neonatal rat ventricular cardiomyocytes were transfected with IVT mRNA for human TBX18 gene. Somatic gene transfer was performed by adding 333 ng of TBX18 IVT mRNA with a transfection reagent, ViroMer Red, to a well in a 96-well plate seeded with the neonatal rat ventricular cardiomyocytes. TBX18 protein expression from the transfected IVT mRNA in the cardiomyocytes were quantitated by specific antibodies to TBX18 on immunoblots and normalized to an endogenous housekeeping protein, GAPDH. […] The TBX18 protein expression was also transient, in line with the expression kinetics of the delivered mRNA. This transient expression of TBX18 closely mimicked its native expression during embryonic development, and is ideal for the intended purpose as a reprogramming agent to convert ordinary heart muscle cells to specialized cardiac pacemaker cells. In FIG. 12, D denotes days after transfection, and each time point consists of two technical replicates.
# [2] = test system: complete atrioventricular block (CAVB) model in rats; experiment: Telemetry ECG in conscious rats with complete atrioventricular block; format: in vivo, rat; conditions: for heart rate during isoproterenol treatment: conscious
# Experimental: (§1) The inventors next studied the effects of administering TBX18 mRNA to a rat model of a complete atrioventricular block. […] In this study, the inventors created a complete atrioventricular block (CAVB) model in rats and monitored the rats for one week to confirm stable and persistent CAVB. Next, TBX18 mRNA was injected into the ventricular apex of each rat and a telemetry device was implanted. Some rats received a high dose of TBX18 mRNA, which was 300 μg TBX mRNA with 205 μl RNA free PBS. The inventors continuously monitored and recorded data from the telemetry device including electrocardiograms for 21 days. The inventors performed 3-lead surface ECGs on anesthetized animals on days 7, 14 and 21 with an isoproterenol challenge, and harvested the heart on day 21.
# ECG data was then compared with telemetry data. Before injection of TBX18 mRNA, telemetry biopotential electrodes were sutured to the chest wall and housed in the abdominal cavity of the rat. Telemetry 2-lead ECG signal was recorded wirelessly for conscious, awake rats. The day before injection of TBX18 mRNA, AV block was present in ECG recordings with an average heart rate of 120 bpm, and these values were used as the baseline.
# [3] = test system: rat model of complete heart block; experiment: Effect of TGF-beta small molecule inhibitor on ventricular pacing with TBX18 mRNA; format: in vivo; conditions: A83-01 released by osmotic pump
# Experimental: On Day 0, an osmotic pump releasing A83-01 (a TGF-beta inhibitor, Sigma Aldrich) was implanted into the rats. On Day 1, TBX18 mRNA was injected into the rats and a telemetry device was also implanted. Two doses of TBX18 mRNA were given to the rats: (i) a low dose of 100 μg TBX18 mRNA with 68.4 μl RNA-free phosphate-buffered saline (PBS), or (ii) a high dose of 300 μg TBX18 mRNA with 205 μl RNA-free PBS. A continuous telemetry recording of each rat's electrocardiogram (ECG) was made for 21 days after implantation of the telemetry device. In addition, 3-lead surface ECGs were performed on anesthetized animals on Days 7, 14, and 21 along with an isoproterenol challenge. The heart was harvested from each animal on Day 21.
# The inventors then determined the effects of including a TGF-beta small molecule inhibitor on ventricular pacing with TBX18 mRNA (FIG. 16).
# [4] = test system: neonatal rat ventricular myocytes; experiment: Spontaneous electrical activity on multi-electrode array; format: cell-based; conditions: control cardiomyocytes: infrequent and low rate activity
# Experimental: Spontaneous electrical activity from neonatal rat ventricular myocytes were recorded on a non-invasive, multi-electrode array platform. […] The number of electrical activity (Count) was plotted as a function of spontaneous beating rates (in beats per minute, BPM) of the cardiomyocytes.
# [5] = test system: neonatal rat ventricular cardiomyocytes; experiment: Nuclear localization of TBX18 (FLAG) by immunostaining; format: cell-based; conditions: 24 hrs post-transfection
# From the text: TBX18 is a transcription factor, and thus should be targeted to the nuclei upon proper translation from mRNA. Freshly-isolated neonatal rat ventricular cardiomyocytes were transfected with IVT mRNA for human TBX18 gene. TBX18 mRNA was designed with a tag peptide (DYKDDDDK (SEQ ID NO:9, also known as a “FLAG” epitope) fused to the C-terminal end of TBX18 for subcellular identification of TBX18 with an antibody against FLAG. Sarcomeric alpha-actinin (α-SA) and DAPI label cardiomyocytes and all nuclei, respectively. Arrows (co-localization of FLAG and DAPI) indicate nuclear localization of TBX18 protein. Three transfection conditions were tested in a 24-well plate, and immunostaining was performed at 24 hrs post-transfection.
# [6] = test system: neonatal rat ventricular cardiomyocytes; experiment: TBX18 IVT mRNA entry by qPCR normalized to GAPDH; format: cell-based; conditions: 333 ng mRNA with ViroMer Red, 96-well plate
# Experimental: Freshly-isolated neonatal rat ventricular cardiomyocytes were transfected with IVT mRNA for human TBX18 gene. Somatic gene transfer was performed by adding 333 ng of TBX18 IVT mRNA with a transfection reagent, ViroMer Red, to a well in a 96-well plate seeded with the neonatal rat ventricular cardiomyocytes. TBX18 IVT mRNA that successfully entered the cardiomyocytes were quantitated by quantitative real-time PCR (qPCR), and the TBX18 mRNA level was normalized to an endogenous housekeeping gene, GAPDH, over time.
# [7] = test system: complete atrioventricular block (CAVB) model in rats; experiment: 3-lead surface ECG in rat complete atrioventricular block model; format: in vivo
# Experimental: as §1
# The inventors determined if there was antegrade conduction (meaning that the direction of cardiac conduction occurred from the SA node, AV node and down toward the apex of the heart) or retrograde conduction (meaning that the direction of cardiac conduction occurred from the site of TBX18 delivery which was the apex of the left ventricle). In order to determine this, the inventors determined a baseline ECG under anesthesia before TBX18 mRNA injection by recording three-lead surface ECGs for ten minutes while the rat was asleep under anesthesia. Recordings confirmed the presence of AV conduction block with multiple P waves between each QRS complex, inconsistent P-R intervals, and a relatively low heart rate of 100 bpm, compared to a healthy rate of over 300 bpm for rats.
# [8] = test system: porcine model of complete heart block; experiment: Porcine model of complete heart block; format: in vivo, pig
# From the text: The inventors next sought to test the TBX18 mRNA in a large animal model, specifically a porcine model, of complete heart block. The inventors used a control of GFP mRNA+A83-01. On Day 1, the inventors created an intracardiac map by implanting a pacemaker and administered the TBX18 mRNA or control. Weeks 2, 4, and 6 after administration included an interrogation of the pacemaker and an isoproterenol challenge to measure the animals' maximum heart rate (max HR). In Week 6, arrythmia testing and intracardiac mapping were performed and vital organs were harvested. […] The proper diurnal response in TBX18-injected pig is in line with the average heart rate data from FIG. 18.
substance,measurement,setting,value
"TBX18 mRNA: IVT mRNA for human TBX18 gene, with FLAG tag peptide fused to the C-terminal end of TBX18",time post-transfection to TBX18 protein expression,[1],less than 6 hours
same,ventricular pacing by continuous recording of heart rate and heart rate histograms,[2]; histograms on Days 21 after injection,created ventricular pacing
same,heart rate during isoproterenol treatment,"[2]; one week after delivery, baseline 120 bpm",265 bpm
same,heart rate during isoproterenol treatment,[2]; three weeks after delivery,260 bpm
same,heart rate during isoproterenol treatment,[2]; two weeks after delivery,206 bpm
same,effect on ventricular pacing / block,[3],created a complete ventricular block
same,spontaneous pacemaker activity,[4],"highly active, high rate pacemaker activity"
same,cardiomyocytes positive for nuclear TBX18 (FLAG positive),[5]; 0.5 μg of IVT mRNA+0.2 μl of ViroMer Red,4%
same,cardiomyocytes positive for nuclear TBX18 (FLAG positive),[5]; 1 μg of IVT mRNA+0.1 μl of ViroMer Red,2%
same,cardiomyocytes positive for nuclear TBX18 (FLAG positive),[5]; 1 μg of IVT mRNA+0.2 μl of ViroMer Red,21%
same,entry of IVT mRNA into cardiomyocytes,[6],efficient entry
same,biological cardiac pacing,[7]; focal intramyocardial injection into ventricular apex,created in vivo biological cardiac pacing
same,conduction vector (cardiac axis mapping),"[7]; one week after injection, baseline 77 degrees",49 degrees
same,heart rate with isoproterenol,"[7]; one week after injection, isoproterenol challenge",229 bpm
same,average heart rate,"[7]; one week after injection, under anesthesia, baseline 100 bpm",120 bpm
same,average heart rate,[7]; three weeks after injection,137 bpm
same,conduction vector of normal QRS complexes,"[7]; three weeks after injection, anterograde",48 degrees
same,conduction vector of transient QRS complexes with isoproterenol,"[7]; three weeks after injection, isoproterenol, retrograde",−110 degrees
same,conduction vector of PVCs,"[7]; three weeks after injection, retrograde",−116 degrees
same,R-R interval as the pig becomes awake in the morning,[8]; diurnal response,shorter R-R interval (faster heart rate)
same,time after delivery within which ventricular pacing was created,"[8]; pig, in vivo",7 to 10 days
